The source made the active and inactive calls. The calls are words filed in the database; no cut-off is given here.
Tests used:
C2C12 [1] = test: Induction of F-actin polymerization in mouse C2C12 cells at 30 uM pretreated with compound for 12 hr followed by hypoxic condition for 24 hrs by phalloidin staining based confocal microscopy; assay type: functional, cell-based; settings: time 36.0 hrs
C2C12 [2] = test: Down regulation of PHD3 mRNA expression in mouse C2C12 cells at 30 uM by qRT-PCR analysis; assay type: functional, cell-based
Mus musculus [3] = test: Antidiabetic activity in diabetic HLI C57BL/6 mouse model assessed as suppression of apoptotic rate in skeletal muscle cell in gastrocnemius muscle at 15 to 30 mg/kg, IM administered by TUNEL assay; assay type: functional, organism-based; settings: dose 15-30 mg/kg
C2C12 [4] = test: Apoptotic rate in mouse C2C12 cells with silenced HIF-1alpha assessed as early apoptotic cells at 30 uM by AnnexinV-FITC/PI staining based FACS analysis (reference value: 4.02 %); assay type: functional
[5] = Microsomal stability in rat liver microsomes assessed as compound remaining after 30 min by HPLC analysis; assay type: ADME, Microsome; settings: read-out: Stability
C2C12 [6] = test: Angiogenic activity in mouse C2C12 cells assessed as accumulation ANG1 protein expression at 300 uM by Western blot analysis; assay type: functional, cell-based
[7] = Toxicity in diabetic HLI C57BL/6 mouse model assessed as lung pathology at 30 mg/kg, IM administered by HE staining based assay; assay type: organism-based; settings: in vivo
C2C12 [8] = test: Upregulation of TNFRSF12A protein expression in mouse C2C12 cells at 30 uM by Western blot analysis; assay type: functional, cell-based
C2C12 [9] = test: Induction of proliferation of hyperglycemia-induced mouse C2C12 cell apoptosis assessed as decrease in Annexin V/PI-positive cells at 30 uM pretreated with compound under hyperglycemia condition for 12 hr followed by hypoxia for 24 hrs; assay type: functional, cell-based; settings: time 36.0 hrs
C2C12 [10] = test: Induction of proliferation of hyperglycemia-induced mouse C2C12 cell death assessed as increase in number of EdU-positive cells at 7.5 to 300 uM pretreated with compound under hyperglycemia condition for 12 hr followed by hypoxia for 24 hrs; assay type: functional, cell-based; settings: dose 7.5-300 µM, time 36.0 hrs
[11] = Dissociation constant, pKa of compound by UV-visible spectrometric method; assay type: physicochemical
C2C12 [12] = test: Angiogenic activity in mouse C2C12 cells assessed as reversal of hyperglycemia-induced reduction in cell number by measuring cell proliferation measured after 12 to 36 hrs; assay type: functional, cell-based
MOVAS-1 [13] = test: Induction proliferation of mouse MOVAS-1 cells assessed as increase in number of EdU-positive cells using conditioned medium of mouse C2C12 cells treated at 30 uM under hyperglycemic condition for 12 hrs followed by hypoxia for 24 hrs by EdU-incorporation assay; assay type: functional; settings: time 36 hrs
C2C12 [14] = test: Upregulation of FGF2 protein expression in mouse C2C12 cells at 30 uM by Western blot analysis; assay type: functional, cell-based
MOVAS-1 [15] = test: Angiogenic activity in mouse MOVAS-1 cells assessed as suppression of F-actin polymerization at 30 uM using conditioned medium of mouse C2C12 cells treated at 30 uM under hyperglycemic condition for 12 hrs followed by hypoxia for 12 hrs by phalloidin staining based confocal microscopy; assay type: functional, cell-based; settings: time 24.0 hrs
C2C12 [16] = test: Reversal of hyperglycemia-induced PDGF-BB protein level reduction in mouse C2C12 cells measured at 30 uM by Western blot analysis; assay type: functional, cell-based
C2C12 [17] = test: Angiogenesis activity in mouse C2C12 cells assessed as decrease in apoptotic rate at 30 uM under hyperglycemia condition presence of MeOE2 inhibitor by Annexin V/PI staining based Flowcytometry method; assay type: functional, cell-based
C2C12 [18] = test: Upregulation of CXCL17 protein expression in mouse C2C12 cells at 30 uM by Western blot analysis; assay type: functional, cell-based
MOVAS-1 [19] = test: Induction proliferation of mouse MOVAS-1 assessed as increase in number of EdU-positive cells using conditioned medium of mouse C2C12 cells with silenced HIF-1alpha treated at 30 uM under hyperglycemic condition for 12 hrs followed by hypoxia for 24 hrs by EdU-incorporation assay; assay type: functional, cell-based; settings: time 36.0 hrs
C2C12 [20] = test: Angiogenic activity in mouse C2C12 cells assessed as reversal of hyperglycemia-induced reduction in total cell number at 300 uM measured after 24 to 36 hrs by EdU-incorporation assay; assay type: functional, cell-based; settings: time 24-36 hrs
C2C12 [21] = test: Upregulation of HO-1 protein expression in mouse C2C12 cells at 30 uM by Western blot analysis; assay type: functional, cell-based
C2C12 [22] = test: Apoptotic rate in hyperglycemia-treated mouse C2C12 cells assessed as necrotic cells at 30 uM by AnnexinV-FITC/PI staining based flow cytometric analysis (reference value: 0.56 %); assay type: functional
C2C12 [23] = test: Angiogenic activity in mouse C2C12 cells assessed as accumulation PDGF-BB protein expression at 300 uM by Western blot analysis; assay type: functional, cell-based
C2C12 [24] = test: Upregulation of IGF protein expression in mouse C2C12 cells at 30 uM by Western blot analysis; assay type: functional, cell-based
C2C12 [25] = test: Angiogenic activity in mouse C2C12 cells assessed as accumulation HIF-1alpha protein expression at 300 uM by Western blot analysis; assay type: functional, cell-based
[26] = Permeability coefficient across basolateral to apical side in human Caco-2 cells by HPLC-UV analysis
Mus musculus [27] = test: Antidiabetic activity in diabetic HLI C57BL/6 mouse model assessed as effect on blood glucose level at 30 mg/kg administered intramuscularly measured after 3 days; assay type: functional, organism-based; settings: time 3.0 day
Mus musculus [28] = test: Angiogenic activity in diabetic HLI C57BL/6 mouse model assessed as HIF-1alpha protein expression at 30 mg/kg, im administered for 21 days followed by surgery by Western blot analysis; assay type: functional, organism-based; settings: time 21.0 day
C2C12 [29] = test: Increase in PDGF-BB protein expression level in HIF-1 alpha silenced mouse C2C12 cells at 30 uM by Western blot analysis; assay type: functional, cell-based
Mus musculus [30] = test: Antidiabetic activity in diabetic HLI C57BL/6 mouse model assessed as PDGF-BB protein expression at 30 mg/kg, im administered for 21 days followed by surgery by Western blot analysis; assay type: functional, organism-based; settings: time 21.0 day

Which results are given for `COc1ccc(Cc2cccc(O[C@@H]3O[C@H](CO)[C@@H](O)[C@H](O)[C@H]3O)c2)cc1`?
Activity (C2C12 [1]): Active; Activity (C2C12 [2]): Active; Activity (Mus musculus [3]): Active; Activity (C2C12 [4]): 3.18%; remaining at 0.5 h [5]: 79.4%; inhibition (C2C12 [6]): Active; Activity [7]: Non-Toxic; Activity (C2C12 [8]): Active; Activity (C2C12 [9]): Active; Activity (C2C12 [10]): Active; pKa [11]: > 14; EC50 (C2C12 [12]): 17.3 µM; fold change (FC) (MOVAS-1 [13]): 2; Activity (C2C12 [14]): Active; Activity (MOVAS-1 [15]): Active; Activity (C2C12 [16]): Active; Activity (C2C12 [17]): inactive; Activity (C2C12 [18]): Active; Activity (MOVAS-1 [19]): Active; Activity (C2C12 [20]): inactive; Activity (C2C12 [21]): Active; Activity (C2C12 [22]): 0.35%; inhibition (C2C12 [23]): Active; Activity (C2C12 [24]): Active; inhibition (C2C12 [25]): Active; Papp B→A [26]: 1.11 ×10⁻⁶ cm/s; Activity (Mus musculus [27]): Active; Activity (Mus musculus [28]): Active; Activity (C2C12 [29]): inactive; Activity (Mus musculus [30]): Active

— ChEMBL document CHEMBL5038635, “Discovery of Salidroside-Derivated Glycoside Analogues as Novel Angiogenesis Agents to Treat Diabetic Hind Limb Ischemia” (J Med Chem, 2022)
